# “Also recorded” adds a separate entry of the source.
# Assays:
# AmpC β-lactamase = biological target: T1, AmpC β-lactamase (Escherichia coli, UniProt P00811); assay: biochemical; set-up: species or system E. coli; conditions: 10 μM compound; for AmpC aggregation counter-screen: ± 0.01% Triton X-100
# T1 construct: Recombinant E. coli AmpC (amino acids 20–377); purchased MyBioSource.com
# Description: Selected compounds were assessed for aggregation using a modified AmpC β-lactamase counter-screen[24],[32],[64]. Recombinant E. coli AmpC (amino acids 20–377) was obtained from MyBioSource.com. Testing was performed in ALARM NMR buffer (25 mM sodium phosphate, pH 7.0) in flat-bottom UV-transparent 96-well microplates in 150 μL reaction volumes. Compounds were tested in triplicate at 10 μM final concentrations in either the presence or absence of freshly-prepared 0.01% Triton X-100 (v/v). Final concentration of DMSO was 2.0% (v/v). Compounds were incubated with ~5 nM AmpC in 147 μL reaction buffer for 5 min at RT, followed by the addition of 3 μL of nitrocefin substrate (100 μM final concentration). Reaction solutions were gently mixed by pipetting up and down three times using a multichannel pipette. […] Percent activity was normalized to DMSO-only controls. Fluconazole and lidocaine were included as negative aggregation control compounds. Rottlerin was included as a positive aggregation control compound. Aggregators were defined as compounds with significant detergent-dependent changes in AmpC activity (t-test, adjusted P-value <0.05; mean differences greater than 30%). Activators were defined as compounds that increased AmpC enzymatic activity.
# p300/CBP = conditions: cited from earlier work
# [1] = Fluorescence quenching counter-screen; format: physicochemical; conditions: 10 μM fluorophore; 32 nM-100 μM compound
# Description: Selected test compounds were assessed for fluorescence quenching using adaptions of previously published procedures[9],[24]. Briefly, test compounds and individual fluorophore standards were incubated together. The fluorescence intensity of these mixtures was compared to the fluorescence intensity of the same fluorophore standards minus test compounds. Each microplate contained positive control columns (DMSO plus fixed concentration of a single fluorophore), negative control columns (DMSO), and experimental wells (test compounds plus fixed concentration of a single fluorophore). […] Final concentration of DMSO was constant at 2.0% (v/v). […] All measurements were performed in ALARM NMR buffer (25 mM sodium phosphate, pH 7.0) at 25 °C. Aliquots of 20 μL buffer were dispensed into microplate wells via ThermoFisher Multidrop dispenser. Microplates were shaken for 1 min on a plate shaker, centrifuged briefly for 1 min at 1000×g, then allowed to incubate at RT for 10 min before measuring fluorescence intensity on a SpectraMax M3 plate reader under reduced lighting. Instrument settings for each fluorophore were unchanged from the aforementioned autofluorescence studies.
# human La antigen = biological target: T2, human La antigen (Homo sapiens, UniProt P05455, T302N); assay: ALARM NMR; format: binding; conditions: 400 μM compound
# T2 construct: amino acids 100–324 of the human La antigen (plus T302N mutation); 6xHis (N); 6xHis (C); host or cells: Escherichia coli Rosetta cells
# T2 sequence (P05455 100-324 T302N): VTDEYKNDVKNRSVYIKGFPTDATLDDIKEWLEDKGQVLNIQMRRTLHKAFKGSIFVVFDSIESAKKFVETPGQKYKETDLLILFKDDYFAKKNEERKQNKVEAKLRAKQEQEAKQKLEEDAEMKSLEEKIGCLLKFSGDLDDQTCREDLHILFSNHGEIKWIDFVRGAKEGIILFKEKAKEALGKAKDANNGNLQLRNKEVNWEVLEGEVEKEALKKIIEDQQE
# Text: The gene encoding amino acids 100–324 of the human La antigen (plus T302N mutation) was cloned into pET28b + vector (Novagen) with both an N- and C-terminal 6xHis tag (addgene.org, plasmid ID 90209). The sequence identity of the ALARM NMR plasmid construct was verified by Sanger sequencing of the transgene region and next-generation sequencing of the whole plasmid.
# Plasmid was transformed into Escherichia coli Rosetta cells (Novagen) and cultured in M9 minimal media. The La antigen was labeled by adding ^13C-labeled amino acid precursors ([3-^13C]-α-ketobutyrate and [3,3′-^13C]-α-ketoisovalerate sodium salts; Cambridge Isotope Laboratories; 250 mg L^−1 final concentrations) to culture medium 30 min before induction with IPTG (1 mM final concentration). Bacteria were collected after incubation at 25 °C for 8 h and washed with ice-cold phosphate-buffered saline (PBS). Washed cells were lysed by French press in ice-cold lysis buffer (50 mM Tris, pH 7.6, 300 mM NaCl, 10% glycerol (v/v), 5 mM β-mercaptoethanol (BME), 5 mM imidazole, 2 mM MgCl2, benzonase, and protease inhibitor cocktail), followed by an additional brief sonication step (3 × 15 s pulse sequence) on ice. This lysed solution was centrifuged (30,000×g for 30 min, two cycles) to remove cellular debris, then loaded onto a pre-washed Ni-NTA bead column (Qiagen) kept at 4 °C and washed with buffer (50 mM Tris, pH 7.6, 300 mM NaCl, 10% glycerol (v/v), 5 mM BME, 5 mM imidazole). The La antigen was eluted with an elution buffer (50 mM Tris, pH 7.6, 300 mM NaCl, 10% glycerol (v/v), 5 mM BME, imidazole gradient ranging from 5 mM to 0.5 M). […] Aliquots were flash-frozen in liquid N2 and stored at −80 °C until further use. Before use, aliquots of ~150 μM protein were incubated in the presence of 20 mM DTT at 37 °C for 1 h, then dialyzed (25 mM sodium phosphate buffer, pH 7.0 (no DTT)) in 16 h cycles at 4 °C with constant nitrogen bubbling and with gentle stirring, for three total buffer cycles.
# For standard testing conditions, the [^1H-^13C]-HMQC spectra were acquired in 25 mM sodium phosphate buffer, pH 7.0, 10% D2O (v/v; CIL) ± 400 μM test compounds delivered from the aforementioned stock solutions, and ± 20 mM non-deuterated DTT. Final concentration of DMSO was 4.0% (v/v). Reaction solutions were mixed, then centrifuged for 5 min (1000×g) in non-binding 384-well microplates at RT, then incubated at 37 °C for 1 h and then 30 °C for 15 h before obtaining spectra. Samples were checked for evidence of gross precipitation. Data were recorded at 298 K on a Bruker UltraShield 700 MHz NMR spectrometer equipped with a Bruker 1.7 mm TCI Cryoprobe and Bruker SampleJet autosampler. Samples were tested at 50 μM protein concentrations using 16 scans, 2048 complex points in F2, and 80 points in F1 using standard protein [^1H-^13C]-HMQC and water suppression pulse sequences.
# Data were analyzed in TopSpin™ 3.5 (Bruker). Reactions were normalized to equivalent DMSO controls. Non-reactive compounds were identified by the absence of chemical shifts or changes in peak intensities (^13C-methyl) ± 20 mM DTT.
# [2] = Autofluorescence counter-screen; format: physicochemical; conditions: autofluorescence at eight fluorophore settings; 32 nM-100 μM compound
# Description: Selected test compounds were assessed for autofluorescence using an adaption of published procedures. […] Final concentration of DMSO was constant at 1.0% (v/v). Compounds and fluorophore standards were transferred as 10 mM DMSO stock solutions to 384-well black polystyrene microplates via Echo 550 dispenser. The plate arrangement was purposefully designed to minimize optical crosstalk by fluorophore standards. All measurements were performed in ALARM NMR buffer (25 mM sodium phosphate, pH 7.0) at 25 °C. Aliquots of 20 μL buffer were dispensed into microplate wells via ThermoFisher Multidrop dispenser. Compounds were shaken for 1 min on a plate shaker, centrifuged briefly for 1 min at 1000×g, then allowed to incubate at RT in buffer for 10 min before measuring fluorescence intensity on a SpectraMax M3 plate reader under reduced lighting. […] Bandwidth filters were set to default mode. Fluorescence intensity was measured for each test compound using each of the eight fluorophore standard settings. Fluorophores present on each plate were then used to construct normalized fluorescence dose-responses (“fluorophore-equivalent concentrations”, FEC). Fluorescence intensity for each test compound was converted to the appropriate FEC.
# Absorbance spectra = format: physicochemical; conditions: 25 mM sodium phosphate, pH 7.0
# Description: Selected test compounds were assessed for absorption between 300 and 750 nm. Most compound absorption spectra were obtained at 100, 50, and 10 μM final compound concentrations in ALARM NMR buffer (25 mM sodium phosphate, pH 7.0). Final concentration of DMSO was constant at 2.0% (v/v). Compounds were allowed to incubate at RT in buffer for 10 min in UV-transparent polystyrene 384-well plates. Absorbance spectra were then obtained on a SpectraMax M3 or BMG Labtech CLARIOstar microplate reader at 25 °C. Significant absorbance was defined as molar absorptivity constants greater than 2000 M^−1 cm^−1 at wavelengths greater than 300 nm.
# HEK293T and MCF7 cells [3] = assay: Membrane permeability (SYTOX green uptake); format: cell-based; conditions: for membrane permeability: Sytox green dead-cell dye uptake
# Description: (§1) For cell growth analyses, cells were seeded in 96-well plates, treated with compounds for the indicated times, and monitored over time in a live cell Incucyte™ ZOOM imager (Essen Biosciences). To label apoptotic and dead cells, caspase 3/7 activatable DEVD recognition motif NucView™ 488 DNA intercalating dye (1:1000 dilution, Essen Biosciences) and SYTOX™ green nucleic acid stain (1:1000 dilution, Invitrogen) were used respectively, following manufacturer instructions.
# [4] = test system: caspase 3/7 activity in HEK293T and MCF7 cells; assay: Live-cell caspase 3/7 activity; format: cell-based; conditions: 24 h after compound addition
# Description: as §1
# [5] = test system: H3K27ac levels in HEK293T and MCF7 cells; assay: Cellular H3K27ac western blot; format: cell-based; conditions: 10 and 30 μM compound
# Description: (§2) Cells were cultured in DMEM supplemented with 10% fetal bovine serum (Winsent), penicillin (100 U mL^−1), and streptomycin (100 µg mL^−1). Compounds dissolved in DMSO or matching DMSO-only controls were added to cells for indicated times. Compound effects in cells were determined as described[67] and are outlined below.
# For western blot analyses, cells were lysed in lysis buffer (20 mM Tris–HCl, pH 8, 150 mM NaCl, 1 mM EDTA, 10 mM MgCl2, 0.5% Triton X-100 (v/v), 12.5 U mL^−1 benzonase (Sigma), complete EDTA-free protease inhibitor cocktail (Roche)). After 3 min incubation at RT, SDS was added to final 1% concentration (w/v). Total cell lysates were resolved in 4–12% Bis-Tris protein gels (Invitrogen) with MOPS buffer (Invitrogen) and transferred for 1.5 h (80 V) onto PVDF membrane (Millipore) in tris-glycine transfer buffer containing 20% methanol and 0.05% SDS. Blots were blocked for 1 h in blocking buffer (5% milk in 0.1% Tween 20/PBS) and incubated with respective primary antibodies: H3K27ac (1:1000, CST #8173), H3 (1:1000, Abcam #10799), p300 (1:2000, Bethyl #A300-358A), CBP (1:1000, Bethyl #A300-362A), actin (1:3000, Abcam #3280), α-tubulin (1:1000, 12G10 DHSB), and α-tubulin-K40ac (1:2000, Abcam #179484) in blocking buffer overnight at 4 °C. After five washes with 0.1% Tween 20/PBS, the blots were incubated with goat anti-rabbit IgG (IRDye 800-conjugated, LiCor #926-32211) and donkey anti-mouse IgG (IRDye 680-conjugated, LiCor #926-68072) antibodies (1:5000) in Odyssey Blocking Buffer (LiCor) for 1 h at RT and washed with 0.1% Tween 20/PBS. The signal was read on an Odyssey scanner (LiCor) at 800 and 700 nm. Representative uncropped images with molecular weight markers are provided (Supplementary Figs. 9, 12, 13).
# HEK293T and MCF7 cells [6] = assay: Cell proliferation by cell confluence; format: cell-based; conditions: 10 and 30 μM compound, 24 h
# Description: as §2, §1
compound,measurement,setting,value
"c1cc(SSc2ccns2)sn1 [Compound 2, NU-9056]",AmpC aggregation counter-screen,AmpC β-lactamase,Detergent-insensitive
same,IC50,"p300/CBP; original report, 27 (Supplementary References)",59 µM
"CCCCCCCCCCCCCCC=C(C(=O)OCC)C(=O)OCC [Compound 19, LoCAM]",AmpC counter-screen result,AmpC β-lactamase; detergent-sensitive modulation,likely aggregators
same,AmpC aggregation counter-screen,AmpC β-lactamase,"Detergent-sensitive (Aggregators were defined as compounds with significant detergent-dependent changes in AmpC activity (t-test, adjusted P-value <0.05; mean differences greater than 30%))"
same,Quenching counter-screen,[1],Negative
same,"ALARM NMR, (-) DTT",human La antigen; 0 mM DTT,Negative
same,"ALARM NMR, (+) DTT",human La antigen; DTT present,Negative
same,ALARM NMR interpretation,human La antigen; with and without DTT,Inert as tested
same,Fluorescence counter-screen,[2],Negative
same,Absorption max (nm),Absorbance spectra,Nominal
same,Absorbance counter-screen,Absorbance spectra; 300-750 nm,Negative
same,"% inhibition, p300/CBP","p300/CBP; @ 50 µM, ref 23 (Supplementary References)",74%
"O=C(O)CCSc1cc(NS(=O)(=O)c2ccc(Br)cc2)c2ccccc2c1O [Compound 24, JMC2015-6a]",cytotoxicity by membrane integrity studies,"HEK293T and MCF7 cells [3]; 30 µM compound, MCF7 cells",cytotoxic
same,membrane permeability,HEK293T and MCF7 cells [3],increased
same,caspase 3/7 activity,[4],induce; also recorded: increased
"O=[N+]([O-])c1cc(Br)c2nsnc2c1Sc1ncnc2[nH]cnc12 [Compound 26, JMC2015-2a]",membrane permeability,HEK293T and MCF7 cells [3],increased
same,caspase 3/7 activity,[4],induce; also recorded: increased
O=C1C(Cl)=C(NCCN2CCOCC2)C(=O)c2ncccc21 [NSC-663284],membrane permeability,HEK293T and MCF7 cells [3],increased
same,cellular H3K27ac levels,[5],decreased H3K27ac levels
same,caspase 3/7 activity,[4],induce; also recorded: increased
CC(=O)c1c(O)c(C)c(O)c(Cc2c(O)c3c(c(C(=O)/C=C/c4ccccc4)c2O)OC(C)(C)C=C3)c1O [Rottlerin],effect on cell proliferation (cell confluence),HEK293T and MCF7 cells [6],cytotoxic effects
same,effect on cell proliferation (cell confluence),HEK293T and MCF7 cells [6]; listed as rottlerin,anti-proliferative effects
same,cellular H3K27ac levels,[5],decreased H3K27ac levels
